Laboratory results as given in US20230203003A1, “Notch Inhibitors and Uses Thereof” (StemSynergy Therapeutics, Inc., priority 2020, published 2023).
Counter-ions that a name gives are not always drawn.

What follows are compounds tested on OE33 Esophageal Adenocarcinoma cell line (assay: OE33 Colony Formation Assay). Conditions: Homo sapiens, OE33, 168 h, OE33 cells, 200 cells/well, 7 days, CellTiter-Glo.
Type: cell-based
Description: OE33 Colony Formation Assay
The OE33 Esophageal Adenocarcinoma cell line was cultured and plated into 96-well tissue culture plates under sparse conditions (200 cells/well). Test compounds were serially diluted in DMSO and then into culture media (final DMSO concentration = 0.1%). Compound/media was then added to cells every 48 hours for a total of 7 days. Clonogenic growth was assessed using the CellTiter-Glo reagent, according to manufacturer (Promega) specifications. Percent inhibition was calculated as the percent of luminescence normalized to control (0.1% DMSO) wells. Nonlinear regression curve fitting was performed using GraphPad Prism software to determine EC50′s.

Row | Structure (SMILES) | EC50 [µM]
1 | CC(C)Cn1c(=O)c(C(=O)Nc2ccccc2N2CCN(C)CC2)c(O)c2ccccc21 [568(02)] | 2.6
2 | CC(C)Cn1c(=O)c(C(=O)Nc2ccc(N3CCN(C)CC3)cc2)c(O)c2ccccc21 [569(02)] | 1.8
3 | CC(C)Cn1c(=O)c(C(=O)Nc2ccc(F)cc2N2CCN(C)CC2)c(O)c2ccccc21 [570(02)] | 2
4 | CC(C)Cn1c(=O)c(C(=O)Nc2cc(F)ccc2N2CCN(C)CC2)c(O)c2ccccc21 [571(02)] | 2.5
5 | CC(C)Cn1c(=O)c(C(=O)Nc2ccc(N3CCN(C)CC3)c(F)c2)c(O)c2ccccc21 [572(02)] | 2.2

Same assay, conditions: OE33 cells, 200 cells/well, 7 days, CellTiter-Glo; listed as 408

Row | Structure (SMILES) | EC50 [µM]
6 | Cc1cccnc1NC(=O)c1c(O)c2ccccc2n(Cc2ccccc2)c1=O [SSTN-408] | 3.7

Same assay, conditions: OE33 cells, 200 cells/well, 7 days, CellTiter-Glo; listed as 452

Row | Structure (SMILES) | EC50 [µM]
7 | Cc1cccnc1NC(=O)c1c(O)c2ccccc2n(Cc2ccccc2)c1=O [SSTN-452] | 1.6

Each compound was assayed against T1, hNotch1ICD (Homo sapiens, UniProt P46531) (assay: Notch1 Reporter Assay (Dox-inducible Notch1-ICD, CSL-responsive luciferase in 293A cells)). Conditions: 293A cells, 24 h, luciferase normalized to cell viability; read-out: Notch1 Reporter Assay IC50.
T1 construct: pLV[Tet]-Puro-TRE3G>Notch1-ICD; expressed in transfected cells; host or cells: 293A cells
T1 sequence (P46531 1754-2555 limits assumed): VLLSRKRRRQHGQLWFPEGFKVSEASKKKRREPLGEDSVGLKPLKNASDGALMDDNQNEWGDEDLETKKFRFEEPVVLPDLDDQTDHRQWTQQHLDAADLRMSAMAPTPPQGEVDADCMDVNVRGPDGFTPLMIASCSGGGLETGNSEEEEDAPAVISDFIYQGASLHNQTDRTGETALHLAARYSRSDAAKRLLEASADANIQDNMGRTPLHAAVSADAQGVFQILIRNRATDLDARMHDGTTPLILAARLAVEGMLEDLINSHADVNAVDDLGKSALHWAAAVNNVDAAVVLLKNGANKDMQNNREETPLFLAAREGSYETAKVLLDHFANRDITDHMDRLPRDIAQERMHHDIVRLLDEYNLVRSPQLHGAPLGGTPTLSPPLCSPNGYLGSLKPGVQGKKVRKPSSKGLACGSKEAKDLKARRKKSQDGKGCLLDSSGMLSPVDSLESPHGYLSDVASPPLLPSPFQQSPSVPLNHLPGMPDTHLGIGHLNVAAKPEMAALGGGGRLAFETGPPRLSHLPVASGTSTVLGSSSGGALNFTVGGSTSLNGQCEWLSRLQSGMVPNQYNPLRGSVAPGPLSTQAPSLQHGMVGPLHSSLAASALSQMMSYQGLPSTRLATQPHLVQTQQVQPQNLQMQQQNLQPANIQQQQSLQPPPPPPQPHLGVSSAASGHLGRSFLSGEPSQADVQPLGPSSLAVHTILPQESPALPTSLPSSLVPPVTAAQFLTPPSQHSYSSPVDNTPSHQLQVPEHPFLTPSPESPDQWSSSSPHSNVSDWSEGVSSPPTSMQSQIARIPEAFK
Type: cell-based
Description: 293A cells expressing 1) pCMV-Tet-On 3G, 2) pLV[Tet]-Puro-TRE3G>Notch1-ICD, 3) pLV[Tet]-Puro-TRE3G>Notch2-ICD, 4) pLV[Tet]-Puro-TRE3G>Notch3-ICD, and 5) pCSL-RElement-Luc were used. When Doxycycline is added, the Tet-ON gene activates expression of hNotch1ICD, which together with endogenous NTC components binds to CSL responsive elements (pCSL-RElement-Luc) and expresses luciferase. 1 ×× 10^4 cells are plated in 100 µL (96-well format). 24 h later, compounds (10 mM stock in DMSO) are diluted in DMSO to 200X, then added (5 ul into 1 mL) to cell culture media containing 50 ng/mL Dox. This is then added 1:1 to cells. Final DMSO = 0.25%, Dox = 25 ng/mL. After 24 h, media is discarded, and cells are lysed in passive lysis buffer (Promega). Cells are rocked at room temperature for 15 min and then lysate is divided for luciferase assay (Luciferase Assay System, Promega) and cell viability (CellTiter Glo 2.0, Promega). Raw luciferase is normalized to cell viability, and then scaled to DMSO wells. Results are analyzed and IC50′s are determined in GraphPad by nonlinear regression curve fitting (4 parameter) of dose response curves.

Row | Structure (SMILES) | IC50 [µM]
8 | CC(C)Cn1c(=O)c(C(=O)Nc2ccccc2N2CCN(C)CC2)c(O)c2ccccc21 [568(02)] | 6.8
9 | CC(C)Cn1c(=O)c(C(=O)Nc2ccc(N3CCN(C)CC3)cc2)c(O)c2ccccc21 [569(02)] | 4.9
10 | CC(C)Cn1c(=O)c(C(=O)Nc2ccc(F)cc2N2CCN(C)CC2)c(O)c2ccccc21 [570(02)] | 5.6
11 | CC(C)Cn1c(=O)c(C(=O)Nc2cc(F)ccc2N2CCN(C)CC2)c(O)c2ccccc21 [571(02)] | 7.9
12 | Cc1cccnc1NC(=O)c1c(O)c2ccccc2n(CC(C)C)c1=O [compound 513, 4-hydroxy-1-isobutyl-N-(3-methylpyridin-2-yl)-2-oxo-1,2-dihydroquinoline-3-carboxamide] | 11.1
13 | COc1ccc2c(c1)c(O)c(C(=O)Nc1ncccc1C)c(=O)n2CC(C)C [compound 514, 4-hydroxy-1-isobutyl-6-methoxy-N-(3-methylpyridin-2-yl)-2-oxo-1,2-dihydroquinoline-3-carboxamide] | 13.6
14 | CC(C)Cn1c(=O)c(C(=O)Nc2ccccn2)c(O)c2ccccc21 [compound 518, 4-hydroxy-1-isobutyl-2-oxo-N-(pyridin-2-yl)-1,2-dihydroquinoline-3-carboxamide] | 18.7
15 | CC(C)Cn1c(=O)c(C(=O)Nc2ncccc2O)c(O)c2ccccc21 [compound 519, 4-hydroxy-N-(3-hydroxypyridin-2-yl)-1-isobutyl-2-oxo-1,2-dihydroquinoline-3-carboxamide] | 17.8
16 | CC(C)Cn1c(=O)c(C(=O)Nc2cc(Cl)ccn2)c(O)c2ccccc21 [compound 526, N-(4-chloropyridin-2-yl)-4-hydroxy-1-isobutyl-2-oxo-1,2-dihydroquinoline-3-carboxamide] | 20.3
17 | CC(C)Cn1c(=O)c(C(=O)Nc2cc(N3CCOCC3)ccn2)c(O)c2ccccc21 [compound 527, 4-hydroxy-1-isobutyl-N-(4-morpholinopyridin-2-yl)-2-oxo-1,2-dihydroquinoline-3-carboxamide] | 8.5
18 | CC(C)Cn1c(=O)c(C(=O)Nc2ncco2)c(O)c2ccccc21 [compound 528, 4-hydroxy-1-isobutyl-N-(oxazol-2-yl)-2-oxo-1,2-dihydroquinoline-3-carboxamide] | 14.3
19 | COc1ccnc(NC(=O)c2c(O)c3ccccc3n(CC(C)C)c2=O)c1 [compound 532, 4-hydroxy-1-isobutyl-N-(4-methoxypyridin-2-yl)-2-oxo-1,2-dihydroquinoline-3-carboxamide] | 12.4
20 | CC(C)Cn1c(=O)c(C(=O)Nc2ccn(C)n2)c(O)c2ccccc21 [compound 533, 4-hydroxy-1-isobutyl-N-(1-methyl-1H-pyrazol-3-yl)-2-oxo-1,2-dihydroquinoline-3-carboxamide] | 22.5
21 | Cc1ccccc1NC(=O)c1c(O)c2ccccc2n(CC(C)C)c1=O [compound 535, 4-hydroxy-1-isobutyl-2-oxo-N-(o-tolyl)-1,2-dihydroquinoline-3-carboxamide] | 5.9
22 | CC(C)Cn1c(=O)c(C(=O)Nc2ccccc2F)c(O)c2ccccc21 [compound 537, N-(2-fluorophenyl)-4-hydroxy-1-isobutyl-2-oxo-1,2-dihydroquinoline-3-carboxamide] | 5.1
23 | CC(C)Cn1c(=O)c(C(=O)Nc2ccc(F)cc2)c(O)c2ccccc21 [compound 539, N-(4-fluorophenyl)-4-hydroxy-1-isobutyl-2-oxo-1,2-dihydroquinoline-3-carboxamide] | 6.6
24 | Cc1ncccc1NC(=O)c1c(O)c2ccccc2n(CC(C)C)c1=O [compound 540, 4-hydroxy-1-isobutyl-N-(2-methylpyridin-3-yl)-2-oxo-1,2-dihydroquinoline-3-carboxamide] | 18.5
25 | CC(C)Cn1c(=O)c(C(=O)NCc2ccco2)c(O)c2ccccc21 [compound 541, N-(furan-2-ylmethyl)-4-hydroxy-1-isobutyl-2-oxo-1,2-dihydroquinoline-3-carboxamide] | 15.1
26 | Cc1cc(NC(=O)c2c(O)c3ccccc3n(CC(C)C)c2=O)n[nH]1 [compound 549, 4-hydroxy-1-isobutyl-N-(5-methyl-1H-pyrazol-3-yl)-2-oxo-1,2-dihydroquinoline-3-carboxamide] | 10.1
27 | Cc1ccncc1NC(=O)c1c(O)c2ccccc2n(CC(C)C)c1=O [compound 550, 4-hydroxy-1-isobutyl-N-(4-methylpyridin-3-yl)-2-oxo-1,2-dihydroquinoline-3-carboxamide] | 20.8
28 | Cc1cnccc1NC(=O)c1c(O)c2ccccc2n(CC(C)C)c1=O [compound 551, 4-hydroxy-1-isobutyl-N-(3-methylpyridin-4-yl)-2-oxo-1,2-dihydroquinoline-3-carboxamide] | 6.7
29 | CC(C)Cn1c(=O)c(C(=O)Nc2cccc(N3CCOCC3)c2)c(O)c2ccccc21 [compound 554, 4-hydroxy-1-isobutyl-N-(3-morpholinophenyl)-2-oxo-1,2-dihydroquinoline-3-carboxamide] | 4.3
30 | Cc1cccnc1NC(=O)c1c(O)c2c(Br)cccc2n(CC(C)C)c1=O [compound 563, 5-bromo-4-hydroxy-1-isobutyl-N-(3-methylpyridin-2-yl)-2-oxo-1,2-dihydroquinoline-3-carboxamide] | 8

Same assay, conditions: Notch1 Reporter Assay IC50, µM, 293A cells, 24 h, luciferase normalized to cell viability

Row | Structure (SMILES) | IC50 [µM]
31 | Cc1cc(NC(=O)c2c(O)c3ccccc3n(CC(C)C)c2=O)on1 [compound 517, 4-hydroxy-1-isobutyl-N-(3-methylisoxazol-5-yl)-2-oxo-1,2-dihydroquinoline-3-carboxamide] | 22.6

Same assay, conditions: value printed in the synthesis heading of the compound; read-out: Notch1 Reporter Assay IC50

Row | Structure (SMILES) | IC50 [µM]
32 | CC(C)Cn1c(=O)c(C(=O)Nc2cccc(F)c2N2CCN(C)CC2)c(O)c2ccccc21 [SSTN-581_HCl salt, N-(3-fluoro-2-(4-methylpiperazin-1-yl)phenyl)-4-hydroxy-1-isobutyl-2-oxo-1,2-dihydroquinoline-3-carboxamide hydrochloride salt] | 7.68
33 | CC(C)Cn1c(=O)c(C(=O)Nc2cc(F)c(N3CCN(C)CC3)c(F)c2)c(O)c2ccccc21 [SSTN-582_HCl salt, N-(3,5-difluoro-4-(4-methylpiperazin-1-yl)phenyl)-4-hydroxy-1-isobutyl-2-oxo-1,2-dihydroquinoline-3-carboxamide hydrochloride salt] | 1.9
34 | CC(C)Cn1c(=O)c(C(=O)Nc2cc(F)cc(N3CCN(C)CC3)c2)c(O)c2ccccc21 [SSTN-583, N-(3-fluoro-5-(4-methylpiperazin-1-yl)phenyl)-4-hydroxy-1-isobutyl-2-oxo-1,2-dihydroquinoline-3-carboxamide] | 8.13
35 | CC(C)Cn1c(=O)c(C(=O)Nc2cc(F)cc(N3CCN(C)CC3)c2)c(O)c2ccccc21 [SSTN-583_HCl salt, N-(3-fluoro-5-(4-methylpiperazin-1-yl)phenyl)-4-hydroxy-1-isobutyl-2-oxo-1,2-dihydroquinoline-3-carboxamide hydrochloride salt] | 6.33
36 | CC(C)Cn1c(=O)c(C(=O)Nc2ccc(F)c(N3CCN(C)CC3)c2)c(O)c2ccccc21 [SSTN-584_Formate salt, N-(4-fluoro-3-(4-methylpiperazin-1-yl)phenyl)-4-hydroxy-1-isobutyl-2-oxo-1,2-dihydroquinoline-3-carboxamide formate salt] | 4.54
37 | CC(C)Cn1c(=O)c(C(=O)Nc2ccc(F)c(N3CCN(C)CC3)c2)c(O)c2ccccc21 [SSTN-584_HCl salt, N-(4-fluoro-3-(4-methylpiperazin-1-yl)phenyl)-4-hydroxy-1-isobutyl-2-oxo-1,2-dihydroquinoline-3-carboxamide hydrochloride salt] | 6.04
38 | CC(C)Cn1c(=O)c(C(=O)Nc2cccc(F)c2)c(O)c2c(N3CCN(C)CC3)cccc21 [SSTN-588, N-(3-fluorophenyl)-4-hydroxy-1-isobutyl-5-(4-methylpiperazin-1-yl)-2-oxo-1,2-dihydroquinoline-3-carboxamide] | 10.3
39 | CC(C)Cn1c(=O)c(C(=O)Nc2cccc(F)c2)c(O)c2c(N3CCN(C)CC3)cccc21 [SSTN-588_HCl salt, N-(3-fluorophenyl)-4-hydroxy-1-isobutyl-5-(4-methylpiperazin-1-yl)-2-oxo-1,2-dihydroquinoline-3-carboxamide hydrochloride salt] | 9.8
